Measured values from patent US5143918A, “Halomacrolides and derivatives having immunosuppressive activity” (Merck & Co., Inc., priority 1991, dated 1992).
pIC50: −log10 of the molar value. Where two headings read alike, the source gives them in different places.

Assays:
[1] = tested on: T lymphocytes (T-cells); assay: T-Cell Proliferation Assay (tritiated thymidine uptake); type: cell-based, C57B1/6 mice; conditions: mouse spleen T lymphocytes, ionomycin 250 ng/ml and PMA 10 ng/ml, 44 h culture + 4 h tritiated thymidine, read-out: IC50 (concentration of compound required to inhibit tritiated thymidine uptake / proliferation of T-cells by 50%)
Protocol: T-Cell Proliferation Assay
The compounds to be assayed were dissolved in absolute ethanol at 1 mg/ml.
Spleens from C57B1/6 mice were taken under sterile conditions and gently dissociated in ice-cold RPMI 1640 culture medium (GIBC), Grand Island, N.Y.) supplemented with 10% heat-inactivated fetal calf serum (GIBO)). Cells were pelleted by centrifugation at 1500 rpm for 8 minutes. Contaminating red cells were removed by treating the pellet with ammonium chloride lysing buffer (GIBO)) for 2 minutes at 4° C. Cold medium was added and cells were again centrifuged at 1500 rpm for 8 minutes. T lymphocytes were then isolated by separation of the cell suspension on nylon wool columns as follows: Nylon wool columns were prepared by packing approximately 4 grams of washed and dried nylon wool into 20 ml plastic syringes. The columns were sterilized by autoclaving at […]. for 30 minutes. Nylon wool columns were wetted with warm (37° C.) culture medium and rinsed with the same medium. Washed spleen cells resuspened in warm medium were slowly applied to the nylon wool. The columns were then incubated in an upright position at 37° C. for 1 hour. Non-adherent T lymphocytes were eluted from the columns with warm culture medium and the cell suspensions were spun as above.
Purified T lymphocytes were resuspended at 2.5×10^5 cells/ml in complete culture medium composed of RPMI 1640 medium with 10% heat-inactivated fetal calf serum, […], 1 mM sodium pyruvate, 2×10^-5 M 2-mercaptoethanol and 50 μg/ml gentamycin. Ionomycin was added at 250 ng/ml and PMA at 10 ng/ml. The cell suspension was immediately distributed into 96 well flat-bottom microculture plates (Costar) at 200 μl/well. The various dilutions of the compound to be tested were then added in triplicate wells at 20 ul/well. The compound 17-allyl-1,14-dihydroxy-12-[2'-(4"-hydroxy-3"-methoxycyclohexyl)-1'-methylvinyl]-23,25-dimethoxy-13,19,21,27-tetramethyl-11,28-dioxa-4-azatricyclo[22.3.1.0^4,9 ]octacos-18-ene-2,3,10,16-tetraone was used as a standard. The culture plates were then incubated at 37° C. in a humidified atmosphere of 5% CO2 -95% air for 44 hours. The proliferation of T lymphocytes was assessed by measurement of tritiated thymidine incorporation. After 44 hours of culturing, the cells were pulse-labelled with 2 μCi/well of tritiated thymidine (NEN, Cambridge, Mass.). After another 4 hours of incubation, cultures were harvested on glass fiber filters using a multiple sample harvester. Radio activity of filter discs corresponding to individual wells was measured by standard liquid scintillation counting methods (Betacounter). Mean counts per minute of replicate wells were calculated and the results expressed as concentration of compound required to inhibit tritiated thymidine uptake of T-cells by 50%.
A selection of compounds were tested according to the previous procedure. The concentration of compound required to inhibit the proliferation of T-cells by 50% was measured, and the results were as follows: […]

[2] = tested on: in vitro immune systems; conditions: versus cyclosporin; J. Antibiotics 1987, 40, 1256; cited from earlier work

Compound: CCC1C=C(C)CC(C)CC(OC)C2OC(O)(C(=O)C(=O)N3CCCCC3C(=O)OC(C(C)=CC3CCC(Br)C(OC)C3)C(C)C(O)CC1=O)C(C)CC2OC (stereo not drawn) [Example 56, 17-Ethyl-1,14-dihydroxy-12-[2'-(4"-beta-bromo-3"-methoxycyclohexyl)-1'-methylvinyl]-23,25-dimethoxy-13,19,21,27-tetramethyl-11,28-dioxa-4-azatricyclo[22.3.1.0^4,9]octacos-18-ene-2,3,10,16-tetraone]
- pIC50 ([1]; T-cell): > 6.00

Compound: CCC1C=C(C)CC(C)CC(OC)C2OC(O)(C(=O)C(=O)N3CCCCC3C(=O)OC(C(C)=CC3CCC(O)C(Br)C3)C(C)CCC1=O)C(C)CC2OC (centres unmarked) [Example 89, 17-Ethyl-1-hydroxy-12-[2'-(3"-bromo-4"-hydroxycyclohexyl)-1'-methylvinyl]-23,25-dimethoxy-13,19,21,27-tetramethyl-11,28-dioxa-4-azatricyclo[22.3.1.0^4,9]octacos-18-ene-2,3,10,16-tetraone]
- pIC50 ([1]; T-cell): > 6.00

Compound: CCC1C=C(C)CC(C)CC(OC)C2OC(O)(C(=O)C(=O)N3CCCCC3C(=O)OC(C(C)=CC3CCC(Cl)C(OC)C3)C(C)C(O)CC1=O)C(C)CC2OC (stereo not drawn) [Example 53, 17-Ethyl-1,14-dihydroxy-12-[2'-(4"-beta-chloro-3"-methoxycyclohexyl)-1'-methylvinyl]-23,25-dimethoxy-13,19,21,27-tetramethyl-11,28-dioxa-4-azatricyclo[22.3.1.0^4,9]octacos-18-ene-2,3,10,16-tetraone]
- pIC50 ([1]; T-cell): > 6.00

Compound: 17-Ethyl-1-hydroxy-12-[2'-(3"-chloro-4"-hydroxycyclohexyl)-1'-methylvinyl]- 23,25-dimethoxy-13,19,21,27-tetramethyl-11,28-dioxa-4-azatricyclo[22.3.1.0^4,9 ]octacos-18-ene-2,3,10,16-tetraone [Example 87]
- pIC50 [1]: > 6.00

Compound: C=CCC1C=C(C)CC(C)CC(OC)C2OC(O)(C(=O)C(=O)N3CCCCC3C(=O)OC(C(C)=CC3CCC(O)C(OC)C3)C(C)C(O)CC1=O)C(C)CC2OC (centres unmarked) [FR-900506, 17-allyl-1,14-dihydroxy-12-[2'-(4"-hydroxy-3"-methoxycyclohexyl)-1'-methylvinyl]-23,25-dimethoxy-13,19,21,27-tetramethyl-11,28-dioxa-4-azatricyclo-[22.3.1.0^4,9]octacos-18-ene-2,3,10,16-tetraone]
- times more effective than cyclosporin in the suppression of in vitro immune systems [2]: 100 times

Compound: CCC1C=C(C)CC(C)CC(OC)C2OC(O)(C(=O)C(=O)N3CCCCC3C(=O)OC(C(C)=CC3CCC(I)C(OC)C3)C(C)C(O)CC1=O)C(C)CC2OC (stereo not drawn) [Example 59, 17-Ethyl-1,14-dihydroxy-12-[2'-(4"-beta-iodo-3"-methoxycyclohexyl)-1'-methylvinyl]-23,25-dimethoxy-13,19,21,27-tetramethyl-11,28-dioxa-4-azatricyclo-[22.3.1.0^4,9]octacos-18-ene-2,3,10,16-tetraone]
- pIC50 [1]: > 6.00

Compound: CCC1C=C(C)CC(C)CC(OC)C2OC(O)(C(=O)C(=O)N3CCCCC3C(=O)OC(C(C)=CC3CCC(F)C(OC)C3)C(C)C(O)CC1=O)C(C)CC2OC (centres unmarked) [Example 62, 17-Ethyl-1,14-dihydroxy-12-[2'-(4"-fluoro-3"-methoxycyclohexyl)-1'-methylvinyl]-23,25-dimethoxy-13,19,21,27-tetramethyl-11,28-dioxa-4-azatricyclo-[22.3.1.0^4,9]octacos-18-ene-2,3,10,16-tetraone]
- pIC50 ([1]; T-cell): > 6.00

Compound: CCC1C=C(C)CC(C)CC(OC)C2OC(O)(C(=O)C(=O)N3CCCCC3C(=O)OC(C(C)=CC3CCC(Cl)C(OC)C3)C(C)CCC1=O)C(C)CC2OC (stereo not drawn) [Example 40, 17-Ethyl-1-hydroxy-12-[2'-(4"-beta-chloro-3"-methoxycyclohexyl)-1'-methylvinyl]-23,25-dimethoxy-13,19,21,27-tetramethyl-11,28-dioxa-4-azatricyclo-[22.3.1.0^4,9]octacos-18-ene-2,3,10,16-tetraone]
- pIC50 ([1]; T-cell): > 6.00
